Assay results published in ChEMBL document CHEMBL1201862, “PubChem BioAssay data set” (2004).
The source made the active and inactive calls.

Experiments:
[1] = target: Induced myeloid leukemia cell differentiation protein Mcl-1 (Homo sapiens, UniProt Q07820); type: functional
[2] = inhibitors of clade B AD8 Env fusion, dose response, cell-based, cherry-pick (AID 652062); type: functional;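 further: luciferase signal from cell-cell fusion driven by HIV-1 clade B AD8 Env; potency is for inhibitors of fusion seen as a drop in luminescence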
[3] = ZM109 Env clade C HIV-1 fusion inhibitors, dose response, HeLa effector, CEM target cells, luciferase, cherry-pick (AID 652058); type: functional, cell-based
[4] = inhibitors of HIV Env-driven cell fusion, dose response, cherry-pick (AID 652057); type: functional, cell-based
Protein RecA = target: T1, Protein RecA (Mycobacterium tuberculosis, UniProt P9WHJ3); assay: Fluorescence Cell-Free Homogeneous Dose Retest to Identify Inhibitors of RecA-Intein Splicing Activity. [Related pubchem assays (depositor defined):AID2097, AID2223, AID489010, AID492950]; type: functional
T1 sequence (P9WHJ3 whole entry): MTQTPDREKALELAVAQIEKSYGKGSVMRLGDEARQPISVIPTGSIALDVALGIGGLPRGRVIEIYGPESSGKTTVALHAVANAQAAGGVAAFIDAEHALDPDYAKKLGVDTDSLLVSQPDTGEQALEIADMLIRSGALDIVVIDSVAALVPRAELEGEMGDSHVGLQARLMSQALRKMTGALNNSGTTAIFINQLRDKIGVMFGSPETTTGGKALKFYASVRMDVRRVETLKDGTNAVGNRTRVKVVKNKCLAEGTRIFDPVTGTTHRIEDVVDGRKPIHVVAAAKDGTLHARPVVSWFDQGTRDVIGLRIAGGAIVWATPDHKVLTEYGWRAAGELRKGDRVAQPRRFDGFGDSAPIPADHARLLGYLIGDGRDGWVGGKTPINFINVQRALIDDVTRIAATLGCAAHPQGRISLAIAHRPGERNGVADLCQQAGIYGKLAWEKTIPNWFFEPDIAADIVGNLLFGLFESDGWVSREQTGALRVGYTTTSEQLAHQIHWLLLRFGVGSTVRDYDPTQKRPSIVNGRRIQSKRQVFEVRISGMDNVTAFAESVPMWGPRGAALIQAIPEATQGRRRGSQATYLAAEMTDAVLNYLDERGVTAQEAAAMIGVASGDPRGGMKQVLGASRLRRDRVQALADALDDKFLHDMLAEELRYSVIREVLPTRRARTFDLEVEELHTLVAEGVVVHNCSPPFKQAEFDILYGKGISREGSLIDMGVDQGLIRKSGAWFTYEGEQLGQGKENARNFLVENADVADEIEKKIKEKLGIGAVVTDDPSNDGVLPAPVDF

[5] = target: Heat shock protein HSP 90-alpha (Homo sapiens, UniProt P07900); type: functional, organism-based
Fatty acid synthase [6] = target: T2, Fatty acid synthase (Homo sapiens, UniProt P49327); assay: FAS thioesterase domain inhibitors, dose response, biochemical, endpoint fluorescence intensity, uHTS hits (AID 624327); type: functional;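 further: fluorescence from hydrolysis of an O-methyl fluorescein acyl ester substrate by the enzyme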
Fatty acid synthase [7] = target: T2, Fatty acid synthase; assay: FAS thioesterase domain inhibitors, dose response, biochemical, kinetic fluorescence intensity (AID 624326); type: functional;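 further: rate of fluorescence rise from hydrolysis of a fluorogenic O-methyl fluorescein ester substrate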
[8] = target: T3, Replicative DNA helicase DnaB (Mycobacterium tuberculosis, UniProt P9WMR3); assay: DnaB intein splicing inhibitors, dose response, biochemical, cell-free fluorescence (AID 449749); type: functional
T3 sequence (P9WMR3 whole entry): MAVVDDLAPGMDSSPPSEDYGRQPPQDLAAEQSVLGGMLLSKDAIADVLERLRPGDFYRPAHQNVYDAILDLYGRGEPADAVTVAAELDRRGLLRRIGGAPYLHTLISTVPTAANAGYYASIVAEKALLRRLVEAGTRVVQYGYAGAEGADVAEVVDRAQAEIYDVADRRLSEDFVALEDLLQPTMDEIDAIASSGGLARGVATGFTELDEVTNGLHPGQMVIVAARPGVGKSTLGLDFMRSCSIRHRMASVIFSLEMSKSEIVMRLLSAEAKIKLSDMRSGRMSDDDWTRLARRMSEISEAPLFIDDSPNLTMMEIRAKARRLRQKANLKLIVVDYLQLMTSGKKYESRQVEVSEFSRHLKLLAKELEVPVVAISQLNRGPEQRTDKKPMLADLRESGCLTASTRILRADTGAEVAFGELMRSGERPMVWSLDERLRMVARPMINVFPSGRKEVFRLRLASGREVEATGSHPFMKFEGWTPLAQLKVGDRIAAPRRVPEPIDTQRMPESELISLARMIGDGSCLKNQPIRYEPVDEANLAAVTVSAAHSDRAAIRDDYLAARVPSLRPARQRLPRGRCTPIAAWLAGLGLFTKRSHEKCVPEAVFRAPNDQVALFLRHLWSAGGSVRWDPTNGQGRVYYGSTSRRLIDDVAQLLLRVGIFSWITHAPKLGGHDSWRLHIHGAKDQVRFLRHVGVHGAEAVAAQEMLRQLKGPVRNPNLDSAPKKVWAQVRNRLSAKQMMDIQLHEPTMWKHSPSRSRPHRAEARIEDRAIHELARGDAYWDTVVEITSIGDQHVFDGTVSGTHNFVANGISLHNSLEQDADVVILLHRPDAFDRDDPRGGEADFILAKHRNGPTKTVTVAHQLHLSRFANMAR

[9] = MC4R antagonists, dose response, counter-screen for LGR2 antagonist project, cell-based, plate reader, cherry pick (AID 743444); type: functional;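 further: transfected HEK 293 cells stimulated with alpha-MSH peptide; potency of inhibitors of the alpha-MSH evoked signal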
[10] = LGR2 antagonists, dose response, cell-based, HEK293, CRE-luciferase reporter, cherry pick, set 2 (AID 743343); type: functional;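 further: transfected cells were stimulated with diluted bursicon conditioned medium after compound addition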
Estrogen receptor = target: T4, Estrogen receptor (Homo sapiens, UniProt P03372);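 further: potency for inhibiting coactivator peptide recruitment to the receptor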
T4 sequence (P03372 whole entry): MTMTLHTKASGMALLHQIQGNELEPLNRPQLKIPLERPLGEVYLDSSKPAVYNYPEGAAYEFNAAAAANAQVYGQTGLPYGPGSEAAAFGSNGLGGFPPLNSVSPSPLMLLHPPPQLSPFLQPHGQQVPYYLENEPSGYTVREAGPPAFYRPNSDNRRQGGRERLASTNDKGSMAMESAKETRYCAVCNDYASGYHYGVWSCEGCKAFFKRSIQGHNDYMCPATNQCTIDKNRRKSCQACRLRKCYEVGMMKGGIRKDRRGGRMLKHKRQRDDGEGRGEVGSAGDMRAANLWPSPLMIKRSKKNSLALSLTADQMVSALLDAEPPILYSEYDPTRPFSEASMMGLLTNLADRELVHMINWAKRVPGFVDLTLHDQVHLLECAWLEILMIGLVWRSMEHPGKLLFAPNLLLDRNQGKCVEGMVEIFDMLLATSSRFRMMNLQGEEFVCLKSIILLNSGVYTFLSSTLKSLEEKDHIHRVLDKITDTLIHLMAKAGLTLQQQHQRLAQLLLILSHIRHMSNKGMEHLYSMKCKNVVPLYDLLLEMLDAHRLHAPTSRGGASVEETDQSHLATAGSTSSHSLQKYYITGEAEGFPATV

[11] = target: Luciferin 4-monooxygenase (Photinus pyralis, UniProt P08659); assay: Counter Screen for Luciferase-based Assay Positives. [Related pubchem assays: 620, 618, 411 ]
[12] = inhibitors of firefly luciferase expression or activity, dose response, H4 neuroglioma cells, luminescence (AID 1990); type: functional, cell-based
HT-1080 = assay: cytotoxicity in HT1080 fibrosarcoma cells, cell-based, fluorescence readout (AID 620); type: functional; conditions: Homo sapiens
[13] = target: T5, Heat shock factor protein 1 (Mus musculus, UniProt P38532); assay: inhibition of MG132-induced HSE-luciferase signal, confirmation, cell-based, NIH3T3, luminescence, dose retest (AID 2382); type: functional;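 further: NIH3T3 fibroblasts with HSF1-driven luciferase reporter stressed by proteasome inhibitor MG132; luminescence from HSF1-driven luciferase expression after 8 hours of MG132 stress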
T5 sequence (P38532 whole entry): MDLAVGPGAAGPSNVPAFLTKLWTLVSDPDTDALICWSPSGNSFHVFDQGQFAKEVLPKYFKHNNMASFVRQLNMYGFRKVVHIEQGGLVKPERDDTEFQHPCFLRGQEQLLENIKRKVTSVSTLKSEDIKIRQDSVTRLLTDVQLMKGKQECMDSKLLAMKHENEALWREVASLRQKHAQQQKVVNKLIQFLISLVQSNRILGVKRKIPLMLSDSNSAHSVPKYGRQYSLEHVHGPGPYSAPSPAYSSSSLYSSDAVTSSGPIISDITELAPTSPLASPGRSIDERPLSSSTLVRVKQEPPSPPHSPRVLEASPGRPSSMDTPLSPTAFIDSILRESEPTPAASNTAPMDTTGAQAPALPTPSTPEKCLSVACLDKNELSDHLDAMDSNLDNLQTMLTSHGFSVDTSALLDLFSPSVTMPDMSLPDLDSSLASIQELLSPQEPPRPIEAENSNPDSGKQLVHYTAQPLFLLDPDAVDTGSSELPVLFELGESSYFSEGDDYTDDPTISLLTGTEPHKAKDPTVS

[14] = Luminescence Cell-Based Dose Response HTS to Identify Inhibitors of 5'UTR Stem-Loop Driven Prion Protein mRNA Translation in H4 Neuroglioblastoma Cells. [Related pubchem assays: 1827 (Project Summary), 1813 (Primary HTS)]; type: functional
[15] = inhibitors of SNCA 5'UTR-driven reporter translation, confirmation, H4 neuroglioma cells, luminescence (AID 1988); type: functional, cell-based
[16] = target: T6, Rac GTPase-activating protein 1 (Homo sapiens, UniProt Q9H0H5); assay: MgcRacGAP GTPase-activating activity inhibitors, confirmation, biochemical, ADP Hunter fluorescence, primary and confirmatory (AID 624330); type: functional
T6 sequence (Q9H0H5 whole entry): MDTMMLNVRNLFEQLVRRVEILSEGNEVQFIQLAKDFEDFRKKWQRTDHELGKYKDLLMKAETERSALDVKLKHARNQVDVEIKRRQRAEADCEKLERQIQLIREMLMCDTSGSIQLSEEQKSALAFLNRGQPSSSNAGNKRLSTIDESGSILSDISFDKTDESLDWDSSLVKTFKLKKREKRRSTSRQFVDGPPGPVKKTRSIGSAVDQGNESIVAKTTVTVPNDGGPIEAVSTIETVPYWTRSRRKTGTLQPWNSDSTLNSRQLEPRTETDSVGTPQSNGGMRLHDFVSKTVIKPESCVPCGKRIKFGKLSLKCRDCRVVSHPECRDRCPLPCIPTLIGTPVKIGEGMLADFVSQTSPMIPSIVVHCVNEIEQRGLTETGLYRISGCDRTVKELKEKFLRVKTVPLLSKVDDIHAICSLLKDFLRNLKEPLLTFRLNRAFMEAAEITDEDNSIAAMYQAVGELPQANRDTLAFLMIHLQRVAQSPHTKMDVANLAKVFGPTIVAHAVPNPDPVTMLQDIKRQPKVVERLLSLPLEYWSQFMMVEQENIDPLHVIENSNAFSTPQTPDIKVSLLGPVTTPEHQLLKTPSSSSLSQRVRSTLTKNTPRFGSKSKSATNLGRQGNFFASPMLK

[17] = inhibitors of intracellular T. cruzi replication, confirmation, NIH3T3 host cells, beta-gal luminescence (AID 2044); type: functional, cell-based;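 further: intracellular parasites grown in NIH/3T3 mouse fibroblasts as host cells; luminescent beta-galactosidase reporter signal from transgenic T. cruzi replicating inside host cells; inhibitors lower the luminescence signal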
[18] = cytotoxicity toward NIH3T3 fibroblasts, dose response, counter-screen, cell-based, ATP luminescence, mouse fibroblasts (AID 2010); type: functional;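 further: cells exposed to compound for about 90 hours before reading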

Induced myeloid leukemia cell differentiation protein Mcl-1, sequence (Q07820 whole entry, the tested form may be a part): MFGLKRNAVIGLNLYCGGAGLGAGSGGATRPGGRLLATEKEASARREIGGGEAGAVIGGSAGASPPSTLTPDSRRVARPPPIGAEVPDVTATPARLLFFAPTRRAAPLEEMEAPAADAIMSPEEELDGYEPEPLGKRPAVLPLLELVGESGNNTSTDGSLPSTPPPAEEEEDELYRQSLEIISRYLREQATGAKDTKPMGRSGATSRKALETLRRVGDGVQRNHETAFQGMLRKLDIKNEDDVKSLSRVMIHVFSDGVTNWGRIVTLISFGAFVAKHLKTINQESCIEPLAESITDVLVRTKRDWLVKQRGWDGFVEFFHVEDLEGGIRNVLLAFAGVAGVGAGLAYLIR
T2 sequence (P49327 whole entry, the tested form may be a part): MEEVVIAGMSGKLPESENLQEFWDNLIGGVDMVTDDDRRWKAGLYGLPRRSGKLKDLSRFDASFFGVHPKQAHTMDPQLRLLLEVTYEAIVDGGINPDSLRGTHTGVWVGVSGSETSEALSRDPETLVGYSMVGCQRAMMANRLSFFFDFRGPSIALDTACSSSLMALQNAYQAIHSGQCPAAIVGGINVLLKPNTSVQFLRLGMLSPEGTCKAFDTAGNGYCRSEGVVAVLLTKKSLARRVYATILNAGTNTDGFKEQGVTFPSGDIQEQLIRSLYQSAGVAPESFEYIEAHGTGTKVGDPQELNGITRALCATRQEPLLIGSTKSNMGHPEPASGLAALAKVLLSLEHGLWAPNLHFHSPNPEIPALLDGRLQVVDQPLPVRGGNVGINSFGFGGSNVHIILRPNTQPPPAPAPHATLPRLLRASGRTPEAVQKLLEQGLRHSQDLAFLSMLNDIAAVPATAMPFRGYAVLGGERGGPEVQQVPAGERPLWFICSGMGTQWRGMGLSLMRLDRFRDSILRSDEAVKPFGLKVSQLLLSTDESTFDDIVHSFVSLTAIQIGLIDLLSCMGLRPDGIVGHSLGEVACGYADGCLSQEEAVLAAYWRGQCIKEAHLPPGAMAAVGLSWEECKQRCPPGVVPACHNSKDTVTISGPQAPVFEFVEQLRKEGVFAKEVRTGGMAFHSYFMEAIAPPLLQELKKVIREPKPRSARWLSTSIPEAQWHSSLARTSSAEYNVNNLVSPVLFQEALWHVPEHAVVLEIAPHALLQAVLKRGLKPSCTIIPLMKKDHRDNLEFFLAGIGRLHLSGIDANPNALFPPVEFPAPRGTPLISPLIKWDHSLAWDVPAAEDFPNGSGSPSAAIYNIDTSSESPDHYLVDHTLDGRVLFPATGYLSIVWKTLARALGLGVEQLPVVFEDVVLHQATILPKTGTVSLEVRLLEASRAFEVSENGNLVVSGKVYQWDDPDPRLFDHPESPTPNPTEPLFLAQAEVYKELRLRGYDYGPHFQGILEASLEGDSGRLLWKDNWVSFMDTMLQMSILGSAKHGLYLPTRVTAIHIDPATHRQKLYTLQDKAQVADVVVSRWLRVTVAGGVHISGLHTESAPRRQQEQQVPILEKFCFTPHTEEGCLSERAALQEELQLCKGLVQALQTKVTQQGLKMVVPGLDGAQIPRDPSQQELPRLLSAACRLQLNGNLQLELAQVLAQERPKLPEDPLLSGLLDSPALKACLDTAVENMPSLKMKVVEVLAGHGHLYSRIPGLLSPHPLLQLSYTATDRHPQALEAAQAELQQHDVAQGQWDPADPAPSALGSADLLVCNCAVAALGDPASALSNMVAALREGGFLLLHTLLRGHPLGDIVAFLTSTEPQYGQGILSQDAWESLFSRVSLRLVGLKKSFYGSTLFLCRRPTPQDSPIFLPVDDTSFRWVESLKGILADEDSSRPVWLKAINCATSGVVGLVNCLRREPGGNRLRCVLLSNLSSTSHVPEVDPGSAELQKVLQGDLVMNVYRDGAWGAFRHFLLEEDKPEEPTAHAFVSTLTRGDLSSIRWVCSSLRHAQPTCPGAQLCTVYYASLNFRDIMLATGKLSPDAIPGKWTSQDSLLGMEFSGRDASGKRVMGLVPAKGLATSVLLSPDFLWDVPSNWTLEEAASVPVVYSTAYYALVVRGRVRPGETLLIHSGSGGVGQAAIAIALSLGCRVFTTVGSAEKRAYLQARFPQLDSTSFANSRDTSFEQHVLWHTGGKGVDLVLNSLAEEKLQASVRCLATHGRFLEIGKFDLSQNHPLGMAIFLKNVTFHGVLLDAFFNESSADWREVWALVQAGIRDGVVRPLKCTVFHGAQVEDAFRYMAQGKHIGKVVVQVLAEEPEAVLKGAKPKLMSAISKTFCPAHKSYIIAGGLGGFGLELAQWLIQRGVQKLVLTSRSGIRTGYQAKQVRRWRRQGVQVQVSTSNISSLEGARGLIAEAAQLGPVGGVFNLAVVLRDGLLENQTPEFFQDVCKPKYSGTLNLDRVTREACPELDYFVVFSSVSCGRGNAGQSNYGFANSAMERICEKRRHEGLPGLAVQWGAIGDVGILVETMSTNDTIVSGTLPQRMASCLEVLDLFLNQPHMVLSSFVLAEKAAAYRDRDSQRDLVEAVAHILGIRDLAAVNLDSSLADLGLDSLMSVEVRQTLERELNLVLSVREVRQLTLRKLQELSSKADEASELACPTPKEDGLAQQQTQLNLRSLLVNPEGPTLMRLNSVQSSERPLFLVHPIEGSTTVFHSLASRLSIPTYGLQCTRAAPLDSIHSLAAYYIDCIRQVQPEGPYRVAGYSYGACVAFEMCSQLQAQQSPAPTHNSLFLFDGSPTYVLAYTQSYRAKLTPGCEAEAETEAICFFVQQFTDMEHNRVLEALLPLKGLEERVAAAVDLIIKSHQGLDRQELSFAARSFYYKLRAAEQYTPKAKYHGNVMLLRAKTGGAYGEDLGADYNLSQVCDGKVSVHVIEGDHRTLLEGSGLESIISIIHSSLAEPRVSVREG
Luciferin 4-monooxygenase, sequence (P08659 whole entry): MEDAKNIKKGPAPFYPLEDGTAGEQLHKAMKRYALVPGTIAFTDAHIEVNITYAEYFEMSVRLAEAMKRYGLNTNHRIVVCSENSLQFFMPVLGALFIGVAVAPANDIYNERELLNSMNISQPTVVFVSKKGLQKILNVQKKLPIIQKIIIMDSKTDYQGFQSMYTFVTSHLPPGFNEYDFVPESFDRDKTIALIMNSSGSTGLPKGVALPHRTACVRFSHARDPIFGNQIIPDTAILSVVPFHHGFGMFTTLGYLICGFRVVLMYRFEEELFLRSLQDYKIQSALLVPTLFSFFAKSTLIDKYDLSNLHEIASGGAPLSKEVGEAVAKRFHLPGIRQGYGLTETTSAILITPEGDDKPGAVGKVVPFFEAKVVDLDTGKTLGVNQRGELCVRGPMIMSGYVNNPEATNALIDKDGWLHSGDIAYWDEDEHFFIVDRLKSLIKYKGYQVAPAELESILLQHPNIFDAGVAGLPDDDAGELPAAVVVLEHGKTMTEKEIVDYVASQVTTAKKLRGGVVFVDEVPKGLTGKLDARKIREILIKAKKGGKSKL

## CCOc1ccc(C(=O)Nc2cc(NC(=O)c3ccc(OCC)c(Cl)c3)cc(C(=O)O)c2)cc1Cl
[1]
  IC50: 14.3 µM (active)

## CCc1cnc(N2[C@@H](C#N)[C@H](c3ccc(C#Cc4ccccc4F)cc3)[C@@H]2CO)s1
[2]
  AC50: 24.4 µM (active)
[3]
  AC50: 5.29 µM (active)
[4]
  AC50: 39.8 µM (active)

## CCCCCCCCNC(=O)/C(C#N)=C/c1ccccc1[N+](=O)[O-]
Protein RecA
  EC50: 3.79 µM (active)
[5]
  AC50: 4.28 µM (active)
Fatty acid synthase [6]
  IC50: 8.41 µM (active)
Fatty acid synthase [7]
  IC50: 5.82 µM (active)
[8]
  AC50: 1.98 µM (active)

## O=C(Nc1ccc(Cl)c(S(=O)(=O)N2CCOCC2)c1)c1ccc2c(c1)OCCO2
[9]
  AC50: 38.9 µM (active)
[10]
  AC50: 37.9 µM (active)

## Cc1noc(C)c1S(=O)(=O)N(C)C[C@@H]1Oc2ccc(NC(=O)Nc3cccc4ccccc34)cc2CC(=O)N([C@H](C)CO)C[C@@H]1C
[2]
  AC50: 2.17 µM (active)
[3]
  AC50: < 0.285 µM (active)
[4]
  AC50: < 0.285 µM (active)

## COc1ccc(OC)c(NC(=O)c2cc(-c3ccc(C)cc3O)[nH]n2)c1
Estrogen receptor
  IC50: 22.1 µM (active)

## CCC(=O)N(CC)C1=C(O)C(=O)c2ccccc2C1=O
Protein RecA
  EC50: 8.5 µM (active)
[8]
  AC50: 14.5 µM (active)
[1]
  IC50: 1.44 µM (active)

## O=C(O)CCSc1nnc(-c2ccc3c(c2)OCO3)o1
[11]
  EC50: 27.7 µM (active)
[12]
  EC50: 8.07 µM (active)
HT-1080
  EC50: > 50 µM (not active)
[13]
  EC50: 3.01 µM (active)
[14]
  EC50: > 120 µM (not active)
[15]
  EC50: 10.6 µM (active)

## Cc1ccc(N2CC(C(=O)Nc3ccc(N(C)C)cc3)CC2=O)cc1C (centres undefined)
[16]
  IC50: 54.2 µM (active)
[1]
  IC50: 3.29 µM (not active)

## O=C1N=C(NNc2ccccc2)S/C1=C\c1ccccc1
[1]
  IC50: 4.76 µM (not active)

## CSc1ncc2c(n1)-c1cc(C)ccc1SC2
[17]
  EC50: 0.135 µM (active)
[18]
  EC50: > 30 µM (not active)
Estrogen receptor
  IC50: > 50 µM (not active)

## Cn1cc(C(=O)NC2CCCCCC2)c(=O)c2cc(S(=O)(=O)N3CCCC3)ccc21
Estrogen receptor
  IC50: > 50 µM (not active)

## C[C@H]1CN([C@@H](C)CO)C(=O)c2cc(NC(=O)Nc3ccc4c(c3)OCO4)ccc2O[C@H]1CN(C)S(=O)(=O)c1ccc(Cl)cc1
[2]
  AC50: 14.5 µM (active)
[3]
  AC50: 5.25 µM (active)
[4]
  AC50: 1.49 µM (active)
